Data on 5 molecules can be found in ChEMBL document CHEMBL1201862, “PubChem BioAssay data set” (2004).

Calls of active or inactive are those of the source.

A short description of test [1]: viability of uninfected HEp-2 cells – cell-based, HTS, cytotoxicity control for RSV inhibitor project, dose response (AID 2410). Type of test: functional. The following applies: human respiratory syncytial virus.
The target of a further test is Aspartyl aminopeptidase (Plasmodium falciparum 3D7, UniProt Q8I2J3).
Chain of Aspartyl aminopeptidase (Q8I2J3 whole entry): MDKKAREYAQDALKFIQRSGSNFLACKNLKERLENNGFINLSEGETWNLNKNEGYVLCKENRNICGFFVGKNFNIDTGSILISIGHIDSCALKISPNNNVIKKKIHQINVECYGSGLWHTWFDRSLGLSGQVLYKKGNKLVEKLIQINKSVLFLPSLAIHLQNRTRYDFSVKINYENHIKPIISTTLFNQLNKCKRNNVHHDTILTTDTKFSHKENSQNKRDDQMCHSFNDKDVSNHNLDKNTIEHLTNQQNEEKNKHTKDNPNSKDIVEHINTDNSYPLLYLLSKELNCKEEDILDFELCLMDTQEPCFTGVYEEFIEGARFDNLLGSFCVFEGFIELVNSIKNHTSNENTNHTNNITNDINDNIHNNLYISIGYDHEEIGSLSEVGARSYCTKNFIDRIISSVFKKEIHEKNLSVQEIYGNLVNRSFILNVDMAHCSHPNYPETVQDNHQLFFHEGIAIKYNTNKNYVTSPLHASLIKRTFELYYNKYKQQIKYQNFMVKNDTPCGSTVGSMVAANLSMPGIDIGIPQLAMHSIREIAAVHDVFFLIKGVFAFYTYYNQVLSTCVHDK
A further test has as its target Procathepsin L (Homo sapiens, UniProt P07711).
Test [2] can be described thus: Luminescence Cell-Based Dose Retest to Confirm Inhibitors of Cancer Stem Cells. [Related pubchem assays (depositor defined):AID2717, AID2721]. Type of test: functional. The following applies: Homo sapiens.
In test [3] the target is Alkaline phosphatase, placental type (Homo sapiens, UniProt P05187). Nature of the test: human placental alkaline phosphatase inhibition – biochemical, luminescence, confirmation (AID 1512). Type of test: functional.
Chain of Alkaline phosphatase, placental type (P05187 whole entry): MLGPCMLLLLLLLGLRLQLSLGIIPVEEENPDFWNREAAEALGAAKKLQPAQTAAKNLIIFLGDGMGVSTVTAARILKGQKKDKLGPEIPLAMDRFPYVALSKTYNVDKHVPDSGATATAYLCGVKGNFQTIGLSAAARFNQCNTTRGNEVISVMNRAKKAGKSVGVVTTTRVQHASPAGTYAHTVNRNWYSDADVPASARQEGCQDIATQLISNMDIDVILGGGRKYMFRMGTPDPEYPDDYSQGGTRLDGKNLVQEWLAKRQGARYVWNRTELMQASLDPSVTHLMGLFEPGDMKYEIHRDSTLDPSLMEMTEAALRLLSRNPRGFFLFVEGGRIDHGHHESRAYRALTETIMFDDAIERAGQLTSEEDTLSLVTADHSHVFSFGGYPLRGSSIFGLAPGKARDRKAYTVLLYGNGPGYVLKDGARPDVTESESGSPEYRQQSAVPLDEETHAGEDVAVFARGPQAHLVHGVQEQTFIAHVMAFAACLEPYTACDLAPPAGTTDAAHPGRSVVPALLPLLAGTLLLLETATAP
Test [4] in a line: NIH-3T3 fibroblast cytotoxicity, dose response, cytotoxicity control, cell-based, fluorescence, Alamar Blue, secondary assay (AID 2327).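 Further: NIH-3T3 mouse fibroblasts cultured with fluconazole at 8 µg/mL.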 Type of test: functional.
Test [5] has as its system Streptococcus sp. 'group A'. In words: Streptococcus pyogenes SK(-)GAS viability under kanamycin – luminescence, BacTiterGlo, confirmation, counter-screen for streptokinase expression inhibitor project, dose response (AID 1900). Type of test: functional, organism-based. For orientation: Counterscreens check selectivity or assay interference.
A short description of test [6]: fluconazole-exposed Candida albicans growth modulators – fluorescence, retest, confirmation (AID 2467). Type of test: functional, cell-based.
Another test addresses NS3 (Hepatitis C virus, UniProt A3EZJ3). In words: PubChem AID 2173. Details: species or system Hepacivirus hominis.
Test [7] has as its target T1, Serine/threonine-protein phosphatase (Candida dubliniensis (strain CD36 / CBS 7987 / NCPF 3949 / NRRLY-17841) (Yeast), UniProt B9W6M3).
T1 sequence (B9W6M3 whole entry): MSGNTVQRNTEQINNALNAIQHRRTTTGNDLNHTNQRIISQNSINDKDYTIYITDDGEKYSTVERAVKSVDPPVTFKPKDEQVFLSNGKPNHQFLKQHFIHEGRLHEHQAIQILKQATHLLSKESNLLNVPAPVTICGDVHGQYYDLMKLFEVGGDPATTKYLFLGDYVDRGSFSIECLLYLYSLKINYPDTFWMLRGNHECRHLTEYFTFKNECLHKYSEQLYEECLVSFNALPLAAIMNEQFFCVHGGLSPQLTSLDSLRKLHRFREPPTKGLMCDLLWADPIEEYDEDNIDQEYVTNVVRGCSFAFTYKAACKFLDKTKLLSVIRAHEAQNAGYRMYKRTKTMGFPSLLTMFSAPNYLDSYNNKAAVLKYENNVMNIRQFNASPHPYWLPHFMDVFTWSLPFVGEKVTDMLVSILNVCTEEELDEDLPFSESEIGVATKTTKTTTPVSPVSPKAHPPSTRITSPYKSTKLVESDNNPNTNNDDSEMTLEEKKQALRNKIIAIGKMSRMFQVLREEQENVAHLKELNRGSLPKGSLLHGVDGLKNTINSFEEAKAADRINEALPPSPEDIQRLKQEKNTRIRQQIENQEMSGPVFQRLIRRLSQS
Nature of the test: blockers of CaCl2-induced CDRE-lacZ signaling – S. cerevisiae, luminescence, secondary, dose response (AID 2388).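 Further: yeast reporter cells carrying a calcineurin-responsive lacZ construct stimulated with calcium chloride; luminescent beta-galactosidase reporter signal in whole cells rather than isolated phosphatase activity; potency for inhibition where a drop in reporter signal means calcineurin blockade.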 Type of test: functional, cell-based.

The next test has as its system Streptococcus. Nature of the test: GAS UMAA2166 growth inhibition – luminescence, BacTiterGlo, counter-screen for streptokinase expression inhibitor project, dose response (AID 1915).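 Further: potency for reduction of bacterial viability or growth.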 The format is functional, organism-based.
In test [8] the target is Heat shock protein HSP 90-alpha (Homo sapiens, UniProt P07900). Type of test: functional, organism-based.
The next test concerns Vero. In words: viability of Vero cells under compound – cytotoxicity control for flavivirus capping enzyme inhibitors (AID 588742). Type of test: functional. The following applies: Chlorocebus sabaeus.
A further test concerns the target Genome polyprotein (dengue virus type 2, UniProt P29990). Nature of the test: flavivirus cap methylation enzyme inhibition – biochemical, confirmation dose response, primary screen (AID 588689). Type of test: functional.
Test [9] addresses ATP-dependent molecular chaperone HSP82 (Candida albicans (strain WO-1) (Yeast), UniProt C4YTQ8). Nature of the test: steroid-induced GRE reporter decrease in yeast – S. cerevisiae, luminescence, Hsp90 inhibitor project, dose response (AID 2400).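 Further: beta-galactosidase luminescence from glucocorticoid response element reporter as proxy for Hsp90 function; inhibitor potency where signal loss means Hsp90 inhibition.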 Type of test: functional, cell-based.
Test [10] addresses Lysosomal acid glucosylceramidase (Homo sapiens, UniProt P04062). Nature of the test: Dose response cell-based high throughput screening assay to identify enhancers of beta-glucosidase activity. [Related pubchem assays: 784 ]. Type of test: functional.
Test [11] deals with T2, Eukaryotic translation initiation factor 2-alpha kinase 3 (Homo sapiens, UniProt Q9NZJ5). Nature of the test: Dose response cell-based high-throughput screening assay to measure PERK inhibition. [Related pubchem assays: 1416 ]. The format is functional.
T2 sequence (Q9NZJ5 whole entry): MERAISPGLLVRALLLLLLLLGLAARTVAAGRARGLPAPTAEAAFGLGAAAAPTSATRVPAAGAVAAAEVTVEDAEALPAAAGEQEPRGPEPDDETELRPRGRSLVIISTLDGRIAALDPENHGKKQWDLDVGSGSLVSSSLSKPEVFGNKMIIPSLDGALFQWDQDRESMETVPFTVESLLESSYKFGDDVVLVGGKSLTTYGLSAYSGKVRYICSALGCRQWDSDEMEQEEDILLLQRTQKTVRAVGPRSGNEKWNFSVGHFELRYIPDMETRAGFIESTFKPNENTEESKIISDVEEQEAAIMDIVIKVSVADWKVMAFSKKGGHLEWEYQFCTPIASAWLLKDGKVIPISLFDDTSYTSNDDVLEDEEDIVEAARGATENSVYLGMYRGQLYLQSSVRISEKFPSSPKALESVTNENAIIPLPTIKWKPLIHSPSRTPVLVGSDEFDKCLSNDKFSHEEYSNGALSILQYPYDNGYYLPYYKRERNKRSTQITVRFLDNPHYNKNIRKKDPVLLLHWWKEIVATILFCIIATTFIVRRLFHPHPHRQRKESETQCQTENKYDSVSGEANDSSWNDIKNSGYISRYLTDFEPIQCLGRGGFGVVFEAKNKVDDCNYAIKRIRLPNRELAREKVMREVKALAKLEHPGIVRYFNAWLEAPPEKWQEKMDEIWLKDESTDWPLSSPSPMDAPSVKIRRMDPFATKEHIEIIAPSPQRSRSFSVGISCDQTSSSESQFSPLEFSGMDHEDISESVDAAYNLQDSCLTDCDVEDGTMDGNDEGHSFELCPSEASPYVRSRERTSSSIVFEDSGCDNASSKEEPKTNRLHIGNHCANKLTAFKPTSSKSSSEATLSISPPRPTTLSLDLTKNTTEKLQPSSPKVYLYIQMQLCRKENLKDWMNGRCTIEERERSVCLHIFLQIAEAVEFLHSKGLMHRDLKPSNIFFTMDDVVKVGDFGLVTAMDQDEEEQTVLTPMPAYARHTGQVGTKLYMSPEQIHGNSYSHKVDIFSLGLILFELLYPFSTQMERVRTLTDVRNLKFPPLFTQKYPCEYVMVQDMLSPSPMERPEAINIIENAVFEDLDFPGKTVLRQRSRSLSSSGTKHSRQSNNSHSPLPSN
The target in test [12] is T2, Eukaryotic translation initiation factor 2-alpha kinase 3. Nature of the test: Counterscreen assay for PERK inhibitors: Dose response cell-based high throughput screening assay to measure inhibition of PERK at 6 hours. [Related pubchem assays: 1522, 1416 ]. The format is functional.

By CC50 is commonly meant the concentration at which the toxic effect on the cells reaches its halfway point. The IC50 is the concentration needed to halve the response being measured. The term AC50 denotes the midpoint of the concentration-response curve, whichever way the signal moves. For orientation: EC50 means the concentration giving half of the maximal effect.

Chain of NS3 (A3EZJ3 whole entry): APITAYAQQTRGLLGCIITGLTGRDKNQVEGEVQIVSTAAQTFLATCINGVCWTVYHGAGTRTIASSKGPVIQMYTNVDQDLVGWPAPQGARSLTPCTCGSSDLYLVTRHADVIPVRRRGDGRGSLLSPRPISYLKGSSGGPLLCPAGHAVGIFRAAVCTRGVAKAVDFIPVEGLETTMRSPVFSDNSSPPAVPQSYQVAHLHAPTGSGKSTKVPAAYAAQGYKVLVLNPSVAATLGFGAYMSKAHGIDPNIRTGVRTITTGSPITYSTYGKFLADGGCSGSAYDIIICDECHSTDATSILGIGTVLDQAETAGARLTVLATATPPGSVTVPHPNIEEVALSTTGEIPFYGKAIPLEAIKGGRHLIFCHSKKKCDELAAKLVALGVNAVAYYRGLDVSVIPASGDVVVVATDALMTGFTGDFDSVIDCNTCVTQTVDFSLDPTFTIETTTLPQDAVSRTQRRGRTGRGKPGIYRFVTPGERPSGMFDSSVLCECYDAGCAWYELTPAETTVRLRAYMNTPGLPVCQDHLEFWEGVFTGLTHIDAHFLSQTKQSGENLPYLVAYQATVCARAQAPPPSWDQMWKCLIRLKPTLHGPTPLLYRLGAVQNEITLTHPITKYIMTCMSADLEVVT
Chain of Genome polyprotein (P29990 2492-3391 limits assumed): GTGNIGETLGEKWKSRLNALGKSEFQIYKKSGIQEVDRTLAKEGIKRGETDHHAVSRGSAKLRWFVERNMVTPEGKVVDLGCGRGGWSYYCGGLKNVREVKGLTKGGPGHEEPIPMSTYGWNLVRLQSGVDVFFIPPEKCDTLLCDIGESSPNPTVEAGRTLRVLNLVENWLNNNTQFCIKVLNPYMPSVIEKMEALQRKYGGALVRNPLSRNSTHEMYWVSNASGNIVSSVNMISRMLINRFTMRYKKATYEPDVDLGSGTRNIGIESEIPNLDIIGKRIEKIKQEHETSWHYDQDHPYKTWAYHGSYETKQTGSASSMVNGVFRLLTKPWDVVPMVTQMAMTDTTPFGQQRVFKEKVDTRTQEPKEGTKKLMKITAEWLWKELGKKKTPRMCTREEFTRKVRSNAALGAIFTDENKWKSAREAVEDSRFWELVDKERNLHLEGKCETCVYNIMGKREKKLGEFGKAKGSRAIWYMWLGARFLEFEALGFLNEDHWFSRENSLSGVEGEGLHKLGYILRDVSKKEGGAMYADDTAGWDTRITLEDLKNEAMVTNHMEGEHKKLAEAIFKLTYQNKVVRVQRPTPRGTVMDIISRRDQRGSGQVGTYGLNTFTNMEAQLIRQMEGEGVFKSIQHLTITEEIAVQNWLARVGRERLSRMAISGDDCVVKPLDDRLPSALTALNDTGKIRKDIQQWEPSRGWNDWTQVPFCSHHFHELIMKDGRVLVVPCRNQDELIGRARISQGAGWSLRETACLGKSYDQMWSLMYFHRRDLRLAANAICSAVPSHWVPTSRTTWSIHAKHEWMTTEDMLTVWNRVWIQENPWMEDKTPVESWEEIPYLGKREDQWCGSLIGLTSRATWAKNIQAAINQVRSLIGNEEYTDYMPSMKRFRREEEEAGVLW
Chain of ATP-dependent molecular chaperone HSP82 (C4YTQ8 whole entry): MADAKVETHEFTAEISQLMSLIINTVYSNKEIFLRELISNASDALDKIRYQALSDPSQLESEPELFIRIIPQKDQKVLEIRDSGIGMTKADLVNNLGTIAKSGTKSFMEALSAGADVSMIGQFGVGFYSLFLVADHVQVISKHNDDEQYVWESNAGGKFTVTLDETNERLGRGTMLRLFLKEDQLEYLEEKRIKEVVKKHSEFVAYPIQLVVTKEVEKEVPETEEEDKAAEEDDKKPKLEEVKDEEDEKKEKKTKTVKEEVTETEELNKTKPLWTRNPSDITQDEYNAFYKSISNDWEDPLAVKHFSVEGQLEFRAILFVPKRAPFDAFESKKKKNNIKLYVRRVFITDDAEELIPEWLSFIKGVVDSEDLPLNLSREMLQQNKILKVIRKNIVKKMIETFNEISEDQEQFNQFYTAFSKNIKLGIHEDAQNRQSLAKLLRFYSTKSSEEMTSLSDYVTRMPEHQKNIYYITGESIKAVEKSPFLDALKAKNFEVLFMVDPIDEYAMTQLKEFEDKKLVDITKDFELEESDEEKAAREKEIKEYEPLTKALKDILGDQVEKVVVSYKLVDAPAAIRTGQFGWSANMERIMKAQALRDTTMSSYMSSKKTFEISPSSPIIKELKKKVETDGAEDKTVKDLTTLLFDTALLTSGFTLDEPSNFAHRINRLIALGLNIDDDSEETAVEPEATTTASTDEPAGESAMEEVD
Chain of Lysosomal acid glucosylceramidase (P04062 whole entry): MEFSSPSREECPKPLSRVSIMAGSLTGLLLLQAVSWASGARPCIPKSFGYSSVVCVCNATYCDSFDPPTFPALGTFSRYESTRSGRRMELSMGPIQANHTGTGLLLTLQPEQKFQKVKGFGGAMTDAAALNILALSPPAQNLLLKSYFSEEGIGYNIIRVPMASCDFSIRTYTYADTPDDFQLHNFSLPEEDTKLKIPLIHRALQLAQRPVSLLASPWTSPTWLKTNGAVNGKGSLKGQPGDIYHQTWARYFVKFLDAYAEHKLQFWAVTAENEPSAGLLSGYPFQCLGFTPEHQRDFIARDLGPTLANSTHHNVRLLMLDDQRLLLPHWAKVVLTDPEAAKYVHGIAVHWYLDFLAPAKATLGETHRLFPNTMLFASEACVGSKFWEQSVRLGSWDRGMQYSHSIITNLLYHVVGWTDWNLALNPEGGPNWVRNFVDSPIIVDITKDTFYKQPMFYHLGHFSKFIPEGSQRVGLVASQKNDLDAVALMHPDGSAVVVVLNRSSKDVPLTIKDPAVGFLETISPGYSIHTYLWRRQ

For the molecule `Nc1ccc(Cc2nc3cc4ccccc4cc3[nH]2)cc1`, in [1], the 50% cytotoxic concentration (CC50) is > 50 µM (active). In addition, in “cells”, the half-inhibitory concentration (IC50) was 15.1 µM (active).

On to `COCCNC(=O)NC1(C(F)(F)F)Oc2ccc(Cl)cc2O1` (centres undefined), for which the IC50 on Aspartyl aminopeptidase is 2.12 µM (active); at Procathepsin L, > 59.6 µM (not active); in test [3], 6.75 µM (active). Besides, the AC50 in [2] was 6.47 µM (active).

As for `O=C1C=CC(=NNc2ccccc2)C=CC1=O`, the EC50 in [4] is > 160 µM (inactive); in test [5], 2.86 µM (active); in test [6], 0.237 µM (active); in test [7] it was 2.47 µM (active); in the test with Streptococcus, 9.57 µM (active); in test [9], 0.887 µM (active). Besides, the IC50 against NS3 was 12.6 µM (not active); at Genome polyprotein, 91.2 µM (active). For the same molecule, the half-maximal activity concentration (AC50) in [8] was 2.02 µM (active). In the test with Vero, the CC50 is 23 µM (active).

Regarding `CCOc1ccc(S(=O)(=O)NCC2CCCO2)c2cccnc12` (centres undefined), the EC50 in test [10] is listed as > 10 µM (not active).

Turning to `COc1cc(C(C#N)N2CCOCC2)ccc1O` (centres undefined), the concentration for a half-maximal effect (EC50) in [11] and in test [12] was > 55.7 µM (not active) in each case.
